According to article PMC11856857, “Protease-Resistant, Broad-Spectrum Antimicrobial Peptides with High Antibacterial and Antifungal Activity” (Life, 2025):
Converted amounts (≈) assume the structure as drawn. “Also recorded” adds a separate entry of the source. Like-named read-outs stand apart in the source and are kept apart here. Where a SMILES comes first, the peptide text is derived from it. Where no end group is shown, it is not given here.

What was measured:
P. aeruginosa ATCC 27853 = format: cell-based, Pseudomonas aeruginosa
S. aureus ATCC 29213 [1] = format: cell-based, Staphylococcus aureus
C. albicans ATCC 10231 = format: cell-based, Candida albicans
3t3 cell line = format: cell-based, mouse; details: 24 h
Method: (§1) 3T3 and HaCaT cells were grown in DMEM consisting of 1% pen/strep and 10% FBS. A total of 5 × 10^4 cells were loaded into each well of a 96-well plate and incubated at 37 °C using a 5% CO2 incubator. All samples were measured in triplicate between 0.5–32 µg/mL concentrations and incubated at 37 °C for 24 h in a 5% CO2 incubator. Only cells and Mag-2 were used as negative and positive controls, respectively. After 24 h, cell cytotoxicity was evaluated using a cell proliferation kit (MTT, Roche, Basel, Switzerland) following the kit protocol and analyzed at 550 nm and 690 nm using a microplate reader (Gen5 Synergy HT BioTek). The concentration of peptides that killed 50% of the cells was determined as the IC50 in the cytotoxicity experiments.

HaCaT cell line = format: cell-based, human; details: 24 h
Method: as §1

E. coli ATCC 25922 = format: cell-based, Escherichia coli
proteinase K = target: T1, proteinase K (Parengyodontium album, UniProt P06873); assay: Stability toward enzymatic degradation (protease resistance assay); format: in vitro ADME; details: peptide 1 mg/mL in TBS (50 mM Tris, 150 mM NaCl, pH 7.6) with 10% DMSO; proteinase K 1 mg/mL (30 U/mg); 37 °C, overnight (also 10 min, 30 min); HPLC at 214 nm
T1 construct: purchased Qiagen
Method: Peptide solutions were prepared at a final concentration of 1 mg/mL in TBS buffer (50 mM Tris, 150 mM NaCl, pH 7.6) including 10% DMSO. The proteinase K solution was adjusted to 1 mg/mL (enzyme activity = 30 U/mg). The peptide solution was then incubated at 37 °C overnight in an orbital shaker. After incubation, the reaction was blocked by adding 1% TFA (100 µL) in water. Peptide solutions with/without the proteinase K enzyme were analyzed at 214 nm using HPLC with an analytic column (AdvanceBio Peptide Plus, 2.1 × 150 mm, 2.7 µm, LC column, Agilent Technologies, Santa Clara, CA, USA) following the linear gradient method (30 min in a range of 5–80% acetonitrile including 0.025% TFA). MIC experiments were repeated to measure biological activities after treating the peptides with proteinase K.

human erythrocytes = format: cell-based; details: pH 7.2
Method: Permission to acquire the fresh human blood used for this experiment was granted by the […] University Local Ethics Committee (No. 2023-2/32, 27 January 2023). First, 30 μL of fresh male human blood was suspended with 10 mL of autoclaved Tris saline buffer (TBS buffer, 10 mM Tris, 150 mM NaCl, pH 7.2) and centrifuged thrice for 5 min at 1500 rpm. […] Three replicates were performed for each peptide dose. A sample of 20% Triton-X 100/DMSO was used as a positive control. After incubation, the 96-well plate was centrifuged at 1500 rpm for 10 min. Absorbance was measured at 414 nm using a microplate reader (Gen5 Synergy HT BioTek). The % lysis of the peptide was calculated as follows:% lysis = OD414 - OD414 (blank)/OD414 (total lysis - blank) × 100

[2] = system: resistant Klebsiella pneumoniae (KP) strain; format: cell-based
S. aureus ATCC 29213 [3] = assay: Resistance development by serial passages; format: cell-based, Staphylococcus aureus; details: for MIC: Staphylococcus aureus

T1 sequence (P06873 106-384): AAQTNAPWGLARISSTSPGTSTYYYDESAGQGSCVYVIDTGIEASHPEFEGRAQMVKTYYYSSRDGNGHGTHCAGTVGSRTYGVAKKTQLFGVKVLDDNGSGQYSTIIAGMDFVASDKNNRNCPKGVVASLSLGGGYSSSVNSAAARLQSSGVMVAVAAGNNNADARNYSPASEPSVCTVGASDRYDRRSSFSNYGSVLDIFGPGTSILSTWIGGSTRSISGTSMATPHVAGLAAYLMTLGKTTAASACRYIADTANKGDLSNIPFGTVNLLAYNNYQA

| Compound | MIC P. aeruginosa (P. aeruginosa ATCC 27853) | MIC S. aureus (S. aureus ATCC 29213 [1]) | MIC C. albicans (C. albicans ATCC 10231) | MIC E. coli (E. coli ATCC 25922) | further results |
| --- | --- | --- | --- | --- | --- |
| RLLRLLLRLLR-NH2 [TN6] | 8 µg/mL | 2 µg/mL | 0.5 µg/mL | 2 µg/mL | IC50 3t3 (3t3 cell line): 29.80 µg/mL; IC50 HaCaT (HaCaT cell line): 15.32 µg/mL; Stability toward proteinase K (HPLC) (proteinase K): fragmented into different-sized molecules; also recorded: disappeared |
| RLLRLLRLLLRLLRLLR-NH2 [TN6(2)] | 64 µg/mL | 16 µg/mL | 32 µg/mL | 16 µg/mL | – |
| RRLLRLLLRLLR-NH2 [RTN6] | 8 µg/mL | 1 µg/mL | 4 µg/mL | 2 µg/mL | – |
| RVLRVLRVLL-NH2 [TN3V1] | 32 µg/mL | 8 µg/mL | 4 µg/mL | 16 µg/mL | – |
| CC(C)C[C@@H](NC(=O)[C@@H](CC(C)C)NC(=O)[C@@H](CC(C)C)NC(=O)[C@@H](CCCNC(=N)N)NC(=O)[C@@H](CC(C)C)NC(=O)[C@@H](CC(C)C)NC(=O)[C@@H](CCCNC(=N)N)NC(=O)[C@@H](CC(C)C)NC(=O)[C@@H](CC(C)C)NC(=O)[C@H](N)CCCNC(=N)N)C(N)=O [D-TN3] (HELM PEPTIDE1{[dR].[dL].[dL].[dR].[dL].[dL].[dR].[dL].[dL].[dL].[am]}$$$$V2.0) | 4 µg/mL (≈ 3.13 µM) | 8 µg/mL (≈ 6.26 µM) | 0.25 µg/mL (≈ 0.196 µM) | 2 µg/mL (≈ 1.57 µM) | HC50 (human erythrocytes): 32.63 µg/mL |
| RALRALARALR-NH2 [TN6A1] | 256 µg/mL | 128 µg/mL | 256 µg/mL | 128 µg/mL | – |
| RLLRLLRLLL [TN3-carboxy] | 32 µg/mL | 16 µg/mL | 1 µg/mL | 4 µg/mL | – |
| RILRILIRLIR-NH2 [TN6I2] | 32 µg/mL | 2 µg/mL | 128 µg/mL | 16 µg/mL | – |
| RLLRLLLLRLLR-NH2 [TN1] | 32 µg/mL | 4 µg/mL | 0.5 µg/mL | 2 µg/mL | – |
| RAARAAARAAR-NH2 [TN6A5] | >1024 µg/mL | >1024 µg/mL | 128 µg/mL | 1024 µg/mL | – |
| RLLRLLLRLLR [D/L-TN6, TN6 template, arginine in L-form, leucine in L- and D-forms] | – | – | – | – | MIC C. albicans (C. albicans ATCC 10231; CLSI M27-A3): 8 µg/mL |
| Polymyxin B [reference compound] | – | – | – | – | MIC KP1 ([2]; Table S2, strain KP1): 16 µg/mL; MIC KP2 ([2]; Table S2, strain KP2): 2 µg/mL; MIC KP8 ([2]; Table S2, strain KP8): 64 µg/mL; MIC KP9 ([2]; Table S2, strain KP9): 2 µg/mL; MIC KP13 ([2]; Table S2, strain KP13): 16 µg/mL; MIC KP22 ([2]; Table S2, strain KP22): 8 µg/mL; MIC KP28 ([2]; Table S2, strain KP28): 16 µg/mL; MIC KP29 ([2]; Table S2, strain KP29): 16 µg/mL; MIC KP35 ([2]; Table S2, strain KP35): 8 µg/mL; MIC KP40 ([2]; Table S2, strain KP40): 4 µg/mL; MIC KP41 ([2]; Table S2, strain KP41): 4 µg/mL; MIC KP42 ([2]; Table S2, strain KP42): 8 µg/mL; MIC KP46 ([2]; Table S2, strain KP46): 16 µg/mL; MIC KP52 ([2]; Table S2, strain KP52): 8 µg/mL |
| RLLRLLRLLLL-NH2 [TN8] | 256 µg/mL | 8 µg/mL | 0.5 µg/mL | 4 µg/mL | – |
| RLLRLLRLLL-NH2 [TN3-amide] | 4 µg/mL | 8 µg/mL | 2 µg/mL | 8 µg/mL | – |
| CC(C)C[C@@H](NC(=O)[C@H](N)CCCNC(=N)N)C(=O)N[C@H](CC(C)C)C(=O)N[C@H](CCCNC(=N)N)C(=O)N[C@H](CC(C)C)C(=O)N[C@H](CC(C)C)C(=O)N[C@H](CC(C)C)C(=O)N[C@H](CC(C)C)C(=O)N[C@H](CCCNC(=N)N)C(=O)N[C@H](CC(C)C)C(=O)N[C@H](CC(C)C)C(=O)N[C@H](CCCNC(=N)N)C(N)=O [D-TN1] (HELM PEPTIDE1{[dR].[dL].[dL].[dR].[dL].[dL].[dL].[dL].[dR].[dL].[dL].[dR].[am]}$$$$V2.0) | 4 µg/mL (≈ 2.59 µM) | 4 µg/mL (≈ 2.59 µM) | 1 µg/mL (≈ 0.646 µM) | 8 µg/mL (≈ 5.17 µM) | HC50 (human erythrocytes): 77.63 µg/mL |
| CNC(C)C1CCC(N)C(OC2C(N)CC(N)C(OC3OCC(C)(O)C(NC)C3O)C2O)O1 (centres unmarked) [gentamicin] | – | – | – | – | MIC value in the sixth passage (S. aureus ATCC 29213 [3]; S. aureus ATCC 29213, continuous serial passaging): 8 µg/mL (≈ 16.8 µM); MIC (S. aureus ATCC 29213 [3]; ATCC29213, read-out: MIC value in the sixth passage): 8 µg/mL (≈ 16.8 µM); MIC (S. aureus ATCC 29213 [3]; ATCC29213, read-out: initial MIC value): 1 µg/mL (≈ 2.09 µM) |
| RVVRVVRVVV-NH2 [TN3V9] | 256 µg/mL | 16 µg/mL | 128 µg/mL | 64 µg/mL | – |
| RIIRIIIRIIR-NH2 [TN6I1] | 128 µg/mL | 16 µg/mL | 128 µg/mL | 32 µg/mL | – |
